Experimental data taken from ChEMBL document CHEMBL3526122, “Identification of UDP-glucuronosyltransferases responsible for the glucuronidation of darexaban, an oral factor Xa inhibitor, in human liver and intestine” (Drug Metab Dispos, 2012).

How the values were obtained:
[1] = Drug metabolism in human liver microsomes assessed as glucuronidation after 10 mins by Michaelis-Menten plot analysis in presence of UDPGA and 0.1% fatty acid free BSA; format: ADME; settings: read-out: Km(unbound)
[2] = target: T1, UDP-glucuronosyltransferase 1A9 (Homo sapiens, UniProt O60656); assay: Activity of recombinant human UGT1A9 expressed in baculovirus-infected insect cells assessed as enzyme-mediated glucuronidation per mg of protein after 5 mins in presence of UDPGA; format: ADME
T1 sequence (O60656 whole entry): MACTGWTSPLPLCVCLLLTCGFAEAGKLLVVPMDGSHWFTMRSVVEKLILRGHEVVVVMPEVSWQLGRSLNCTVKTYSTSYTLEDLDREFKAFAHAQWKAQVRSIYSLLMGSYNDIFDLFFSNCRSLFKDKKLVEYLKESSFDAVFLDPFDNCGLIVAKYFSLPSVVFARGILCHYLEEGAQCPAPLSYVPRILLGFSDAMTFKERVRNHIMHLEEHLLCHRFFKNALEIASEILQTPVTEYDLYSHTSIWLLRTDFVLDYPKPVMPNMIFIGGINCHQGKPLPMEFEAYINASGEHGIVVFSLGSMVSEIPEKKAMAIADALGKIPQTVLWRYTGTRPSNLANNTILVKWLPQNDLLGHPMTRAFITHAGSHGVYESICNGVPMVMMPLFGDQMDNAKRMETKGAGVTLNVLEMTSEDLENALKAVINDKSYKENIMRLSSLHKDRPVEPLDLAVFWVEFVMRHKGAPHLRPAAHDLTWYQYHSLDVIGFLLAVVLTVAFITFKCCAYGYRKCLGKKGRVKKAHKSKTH

[3] = target: T2, UDP-glucuronosyltransferase 2B4 (Homo sapiens, UniProt P06133); assay: Activity of human recombinant UGT2B4 expressed in baculovirus-infected insect cells assessed as enzyme-mediated glucuronidation per mg of protein after 10 mins in presence of UDPGA; format: ADME
T2 sequence (P06133 whole entry): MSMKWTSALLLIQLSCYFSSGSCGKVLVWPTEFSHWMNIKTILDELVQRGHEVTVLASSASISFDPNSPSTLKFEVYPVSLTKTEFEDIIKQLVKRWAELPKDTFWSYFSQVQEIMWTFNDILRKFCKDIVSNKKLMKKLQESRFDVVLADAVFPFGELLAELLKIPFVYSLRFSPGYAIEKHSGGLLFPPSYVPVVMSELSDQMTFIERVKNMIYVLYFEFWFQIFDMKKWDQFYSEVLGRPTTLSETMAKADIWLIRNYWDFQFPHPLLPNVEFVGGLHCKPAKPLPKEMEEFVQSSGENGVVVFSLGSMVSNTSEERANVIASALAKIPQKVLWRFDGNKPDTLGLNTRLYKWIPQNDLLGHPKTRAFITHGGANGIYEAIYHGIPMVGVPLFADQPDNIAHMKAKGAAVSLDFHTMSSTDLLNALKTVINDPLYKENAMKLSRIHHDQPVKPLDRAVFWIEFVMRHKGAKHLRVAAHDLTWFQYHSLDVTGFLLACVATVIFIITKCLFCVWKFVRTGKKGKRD

[4] = Substrate inhibition in human intestinal microsomes after 5 mins by Michaelis-Menten plot analysis in presence of UDPGA; format: ADME, Intestine, Microsome
[5] = target: T3, UDP-glucuronosyltransferase 1A8 (Homo sapiens, UniProt Q9HAW9); assay: Activity of human recombinant UGT1A8 expressed in baculovirus-infected insect cells assessed as enzyme-mediated glucuronidation per mg of protein after 10 mins in presence of UDPGA; format: ADME
T3 sequence (Q9HAW9 whole entry): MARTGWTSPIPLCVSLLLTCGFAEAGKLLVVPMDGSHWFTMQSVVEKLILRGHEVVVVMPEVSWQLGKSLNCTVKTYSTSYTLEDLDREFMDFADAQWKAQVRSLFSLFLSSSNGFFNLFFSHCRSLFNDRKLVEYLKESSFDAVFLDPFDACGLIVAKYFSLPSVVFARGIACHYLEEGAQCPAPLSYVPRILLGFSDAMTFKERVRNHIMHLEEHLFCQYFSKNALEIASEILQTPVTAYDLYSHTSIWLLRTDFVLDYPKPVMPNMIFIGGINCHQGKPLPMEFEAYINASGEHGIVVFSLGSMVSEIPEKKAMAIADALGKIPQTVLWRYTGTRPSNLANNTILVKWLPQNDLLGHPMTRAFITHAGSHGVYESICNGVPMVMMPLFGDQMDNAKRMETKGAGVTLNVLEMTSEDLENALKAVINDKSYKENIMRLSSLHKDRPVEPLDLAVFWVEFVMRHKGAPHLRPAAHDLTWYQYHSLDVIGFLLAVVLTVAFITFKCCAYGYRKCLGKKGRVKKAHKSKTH

[6] = Fraction unbound in incubation mixture containing human recombinant UGT1A9 at 1 to 250 uM after 10 mins by ultrafiltration method in absence of fatty acid free BSA
[7] = Drug metabolism in human liver microsomes assessed as glucuronidation after 10 mins by Michaelis-Menten plot analysis in presence of UDPGA and 0.5% fatty acid free BSA; format: ADME; settings: read-out: Km(unbound)
[8] = Fraction unbound in human liver microsomes at 1 to 250 uM after 10 mins by ultrafiltration method in absence of fatty acid free BSA; format: ADME
[9] = target: T1, UDP-glucuronosyltransferase 1A9; assay: Activity of human recombinant UGT1A9 expressed in baculovirus-infected insect cells assessed as intrinsic clearance for enzyme-mediated glucuronide formation per mg of protein at 1 to 250 uM after 5 mins by Michaelis-Menten plot analysis in presence of UDPGA; format: ADME
[10] = Drug metabolism in human liver microsomes assessed as glucuronidation after 10 mins by Michaelis-Menten plot analysis in presence of UDPGA; format: ADME
[11] = Fraction unbound in human liver microsomes at 1 to 250 uM after 10 mins by ultrafiltration method in presence of 2% fatty acid free BSA; format: ADME
[12] = target: T4, UDP-glucuronosyltransferase 2B7 (Homo sapiens, UniProt P16662); assay: Activity of human recombinant UGT2B7 expressed in baculovirus-infected insect cells assessed as enzyme-mediated glucuronidation per mg of protein after 10 mins in presence of UDPGA; format: ADME
T4 sequence (P16662 whole entry): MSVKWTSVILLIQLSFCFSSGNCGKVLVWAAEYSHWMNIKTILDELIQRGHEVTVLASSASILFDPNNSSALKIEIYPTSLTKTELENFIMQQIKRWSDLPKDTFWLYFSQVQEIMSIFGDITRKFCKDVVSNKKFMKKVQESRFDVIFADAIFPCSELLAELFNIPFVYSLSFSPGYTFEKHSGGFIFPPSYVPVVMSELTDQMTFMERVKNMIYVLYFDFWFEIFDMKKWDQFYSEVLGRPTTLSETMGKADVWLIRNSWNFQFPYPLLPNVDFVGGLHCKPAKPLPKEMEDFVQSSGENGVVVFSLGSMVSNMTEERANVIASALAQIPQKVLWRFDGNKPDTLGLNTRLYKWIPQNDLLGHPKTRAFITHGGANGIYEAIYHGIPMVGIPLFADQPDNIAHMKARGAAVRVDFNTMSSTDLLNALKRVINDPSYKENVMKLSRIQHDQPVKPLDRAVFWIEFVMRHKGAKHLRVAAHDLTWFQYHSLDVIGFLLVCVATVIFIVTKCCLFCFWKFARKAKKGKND

[13] = Drug metabolism in human intestinal microsomes assessed as glucuronidation after 10 mins by Michaelis-Menten plot; format: ADME, Intestine, Microsome

## COc1ccc(C(=O)Nc2cccc(O)c2NC(=O)c2ccc(N3CCCN(C)CC3)cc2)cc1.O=C(O)CCC(=O)O
[1]
  Km at 10 min: 17.7 µM
[2]
  Drug metabolism: 2.43 nmol/min/mg
[3]
  Drug metabolism: < 0.01 nmol/min/mg
[4]
  Ki: 463 µM
[5]
  Drug metabolism: 0.393 nmol/min/mg
[6]
  Fu: 0.879
[7]
  Km at 10 min: 17.7 µM
[8]
  fraction unbound at 10 min, up to 250 µM: 0.873
[9]
  clearance: 132 µL/min/mg
[10]
  Km at 10 min: > 250 µM
[11]
  fraction unbound at 10 min, up to 250 µM: 0.251
[12]
  Drug metabolism: < 0.01 nmol/min/mg
[13]
  Km at 10 min: 27.3 µM
